Measured values published in ChEMBL document CHEMBL1123666, “Conformationally defined adrenergic agents. 4. 1-(aminomethyl)phthalans: synthesis and pharmacological consequences of the phthalan ring oxygen atom” (J Med Chem, 1987).

Assays:
[1] = biological target: T1, Adrenergic receptor alpha-1 (Homo sapiens, UniProt P35348+P25100+P35368); assay: Binding affinity towards alpha 1 adrenergic receptor; assay type: protein assay, Oryctolagus cuniculus
T1 sequence (P35348 whole entry): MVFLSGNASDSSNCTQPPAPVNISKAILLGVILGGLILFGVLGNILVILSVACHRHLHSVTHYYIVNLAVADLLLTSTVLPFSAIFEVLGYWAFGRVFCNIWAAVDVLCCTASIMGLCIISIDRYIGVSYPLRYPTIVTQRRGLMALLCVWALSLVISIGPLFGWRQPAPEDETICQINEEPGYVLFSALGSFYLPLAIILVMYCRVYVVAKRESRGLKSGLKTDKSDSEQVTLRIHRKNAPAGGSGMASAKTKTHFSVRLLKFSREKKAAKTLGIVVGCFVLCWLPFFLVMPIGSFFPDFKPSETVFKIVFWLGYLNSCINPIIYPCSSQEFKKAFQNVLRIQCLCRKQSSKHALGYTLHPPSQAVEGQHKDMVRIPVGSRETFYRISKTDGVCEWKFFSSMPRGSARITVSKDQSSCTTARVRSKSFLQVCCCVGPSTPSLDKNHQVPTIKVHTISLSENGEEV
T1 sequence (P25100 whole entry): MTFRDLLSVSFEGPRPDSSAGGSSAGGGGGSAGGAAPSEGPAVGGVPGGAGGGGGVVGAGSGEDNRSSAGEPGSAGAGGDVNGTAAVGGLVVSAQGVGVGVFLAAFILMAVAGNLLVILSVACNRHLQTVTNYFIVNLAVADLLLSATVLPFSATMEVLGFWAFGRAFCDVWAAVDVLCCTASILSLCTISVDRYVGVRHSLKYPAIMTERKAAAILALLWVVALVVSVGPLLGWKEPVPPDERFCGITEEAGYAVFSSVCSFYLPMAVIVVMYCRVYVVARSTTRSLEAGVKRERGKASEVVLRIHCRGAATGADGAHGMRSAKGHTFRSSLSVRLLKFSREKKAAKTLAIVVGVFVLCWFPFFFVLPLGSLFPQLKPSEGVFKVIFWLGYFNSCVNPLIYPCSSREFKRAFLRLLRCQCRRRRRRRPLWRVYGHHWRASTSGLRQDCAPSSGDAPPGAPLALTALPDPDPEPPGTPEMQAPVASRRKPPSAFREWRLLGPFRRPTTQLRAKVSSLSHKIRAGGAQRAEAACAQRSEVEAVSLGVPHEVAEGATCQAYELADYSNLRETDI
T1 sequence (P35368 whole entry): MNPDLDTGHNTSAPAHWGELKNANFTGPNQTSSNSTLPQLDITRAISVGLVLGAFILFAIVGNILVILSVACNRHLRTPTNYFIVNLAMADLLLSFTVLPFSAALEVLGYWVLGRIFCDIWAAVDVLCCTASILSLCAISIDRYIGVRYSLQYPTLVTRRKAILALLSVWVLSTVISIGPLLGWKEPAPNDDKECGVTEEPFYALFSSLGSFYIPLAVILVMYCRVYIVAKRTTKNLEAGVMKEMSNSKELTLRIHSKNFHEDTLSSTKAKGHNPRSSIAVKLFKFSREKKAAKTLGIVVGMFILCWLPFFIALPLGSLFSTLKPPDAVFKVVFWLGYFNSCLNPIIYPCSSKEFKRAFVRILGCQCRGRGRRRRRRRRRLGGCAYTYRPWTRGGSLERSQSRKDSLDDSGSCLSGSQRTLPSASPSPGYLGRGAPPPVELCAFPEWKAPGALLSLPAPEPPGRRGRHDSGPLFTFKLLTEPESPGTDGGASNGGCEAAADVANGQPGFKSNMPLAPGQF

[2] = biological target: T2, Adrenergic receptor alpha (Homo sapiens) (UniProt P35348+P08913+P18825+P25100+P35368+P18089); assay: Ratio of Ki of alpha-1 to Ki of alpha-2 adrenoceptor; assay type: protein assay
[3] = biological target: T3, Adrenergic receptor alpha-2 (Homo sapiens, UniProt P08913+P18825+P18089); assay: Binding affinity towards alpha 2 adrenergic receptor; assay type: protein assay, Canis lupus familiaris
T3 sequence (P08913 whole entry): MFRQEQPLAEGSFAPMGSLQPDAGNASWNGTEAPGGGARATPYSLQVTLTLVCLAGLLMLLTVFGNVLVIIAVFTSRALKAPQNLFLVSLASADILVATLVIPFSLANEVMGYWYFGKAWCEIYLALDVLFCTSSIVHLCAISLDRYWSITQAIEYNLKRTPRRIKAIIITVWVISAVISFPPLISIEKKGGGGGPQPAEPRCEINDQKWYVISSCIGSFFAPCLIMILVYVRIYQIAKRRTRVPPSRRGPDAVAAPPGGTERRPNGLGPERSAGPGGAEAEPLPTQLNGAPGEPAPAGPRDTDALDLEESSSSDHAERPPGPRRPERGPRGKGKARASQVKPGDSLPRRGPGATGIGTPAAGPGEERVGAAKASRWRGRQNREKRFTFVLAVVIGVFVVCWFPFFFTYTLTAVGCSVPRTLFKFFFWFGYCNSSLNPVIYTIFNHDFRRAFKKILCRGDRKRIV
T3 sequence (P18825 whole entry): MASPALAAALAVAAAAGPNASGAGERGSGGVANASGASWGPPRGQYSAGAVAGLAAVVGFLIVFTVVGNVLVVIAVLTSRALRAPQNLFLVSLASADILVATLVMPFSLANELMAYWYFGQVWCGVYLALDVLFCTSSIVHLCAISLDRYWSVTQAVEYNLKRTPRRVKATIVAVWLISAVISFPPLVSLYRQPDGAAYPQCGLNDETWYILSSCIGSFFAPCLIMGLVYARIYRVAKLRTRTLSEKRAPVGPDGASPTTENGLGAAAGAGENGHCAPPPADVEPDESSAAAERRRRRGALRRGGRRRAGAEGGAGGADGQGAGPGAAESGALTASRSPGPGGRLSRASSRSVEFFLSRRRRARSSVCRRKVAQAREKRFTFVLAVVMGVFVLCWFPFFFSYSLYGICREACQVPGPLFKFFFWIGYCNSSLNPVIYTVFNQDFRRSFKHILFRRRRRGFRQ
T3 sequence (P18089 whole entry): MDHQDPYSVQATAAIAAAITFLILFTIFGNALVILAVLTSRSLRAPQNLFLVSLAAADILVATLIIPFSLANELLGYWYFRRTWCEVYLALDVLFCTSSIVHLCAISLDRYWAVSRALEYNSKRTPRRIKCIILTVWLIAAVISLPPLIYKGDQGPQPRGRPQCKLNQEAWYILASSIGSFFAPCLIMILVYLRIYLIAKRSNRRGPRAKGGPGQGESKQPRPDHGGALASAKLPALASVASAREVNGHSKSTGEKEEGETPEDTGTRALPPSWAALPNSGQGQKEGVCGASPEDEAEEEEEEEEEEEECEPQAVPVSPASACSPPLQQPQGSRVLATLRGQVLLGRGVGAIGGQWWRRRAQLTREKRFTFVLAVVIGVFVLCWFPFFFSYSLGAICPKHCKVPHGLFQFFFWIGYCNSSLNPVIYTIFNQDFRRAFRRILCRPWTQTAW

[4] = biological target: Adrenergic receptor alpha-1 (Homo sapiens) (UniProt P35348+P25100+P35368); assay: In vitro alpha 1 adrenergic activity using isolated rabbit aorta expressed as percent maximum response of the tissue to norepinephrine.; assay type: functional, tissue-based; conditions: Oryctolagus cuniculus
[5] = Ratio of ED50 of NE to ED50 of CPD from PBZ-pretreated dog alpha-2 adrenoceptor
[6] = biological target: Adrenergic receptor alpha-2 (Homo sapiens) (UniProt P08913+P18825+P18089); assay: In vitro alpha 2 adrenergic activity uin phenozybenzamine pretreated dog saphenous vein expressed as percent maximum response of the tissue to norepinephrine.; assay type: functional, tissue-based; conditions: Canis lupus familiaris
[7] = Ratio of ED50 of NE to ED50 of CPD from Rabbit aorta alpha-1 adrenoceptor; assay type: tissue-based
[8] = biological target: T2, Adrenergic receptor alpha (Homo sapiens); assay: In vitro alpha-2 selectivity which is the measure of Ratio of Ki of alpha-1 adrenoceptor to Ki of alpha-2 adrenoceptor; assay type: protein assay

| Structure (SMILES) | Ki [1] | Ratio [2] | Ki [3] | Emax [4] | Ratio [5] | Emax [6] | Ratio [7] | Ratio [8] |
| --- | --- | --- | --- | --- | --- | --- | --- | --- |
| NCC1CCc2cc(O)c(O)cc21 (stereo not given) | 26000 nM | 50 | 520 nM | – | – | – | – | – |
| NCC1OCc2cc(O)c(O)cc21 (stereo not given) | 99000 nM | 9.7 | 13000 nM | – | – | – | – | – |
| CN(C)CC1CCc2c1ccc(O)c2O (stereo not given) | 6900 nM | 276 | 25 nM | 105 | 2.05 | 101 | 0.27 | 7.6 |
| NCC1OCc2c1ccc(O)c2O (stereo not given) | 9800 nM | 127 | 77 nM | 107 | 1.45 | 90 | 0.04 | 36.3 |
| CNCC1OCc2c1ccc(O)c2O (stereo not given) | 1970 nM | 112 | 18 nM | 126 | 1.69 | 94 | 0.32 | 5.3 |
| NCC1CCc2c1ccc(O)c2O (stereo not given) | 2250 nM | 145 | 15 nM | 102 | 3.55 | 91 | 0.017 | 209 |
| CCCN(CCC)CC1CCc2c1ccc(O)c2O (stereo not given) | 7400 nM | 16 | 470 nM | – | – | – | – | – |
| CCCN(CCC)CC1OCc2c1ccc(O)c2O (stereo not given) | 10300 nM | 15 | 670 nM | – | – | – | – | – |
| CN(C)CC1OCc2c1ccc(O)c2O (stereo not given) | 1160 nM | 109 | 10.7 nM | 114 | 4 | 107 | 1 | 4 |
| CNCC1CCc2c1ccc(O)c2O (stereo not given) | 2000 nM | 323 | 7 nM | 109 | 29.6 | 81 | 0.27 | 110 |
